Measured values published in ChEMBL document CHEMBL4311936, “Synthesis and structure-activity relationship studies of IgG-binding peptides focused on the C-terminal histidine residue” (Medchemcomm, 2019).
pKd: −log10 of the molar value. Bridge positions count the residues as written; N and C are the ends. Square brackets hold non-standard residues; d marks the D form. Peptide text beside a SMILES is read from it. * marks the point of attachment. ξ: configuration not given here. NH(4-OH-benzyl) = Oc1ccc(CN*)cc1; ξ3Pal = NC(Cc1cccnc1)C(=O)O; ξ4Pal = NC(Cc1ccncc1)C(=O)O; ξ2Thi = NC(Cc1cccs1)C(=O)O; ξCha = NC(CC1CCCCC1)C(=O)O; ξOrn = NCCCC(N)C(=O)O

Columns and labels:
[1] = species: Homo sapiens; test: Binding affinity to human IgG assessed as association rate constant by SPR analysis
[2] = Binding affinity to human IgG assessed as dissociation constant by SPR analysis
[3] = species: Homo sapiens; test: Binding affinity to human IgG assessed as dissociation rate constant by SPR analysis

SMILES	Ka [1] [M⁻¹ s⁻¹]	pKd [2]	Kdiss [3] [s⁻¹]
CC(=O)N[C@@H](CC(=O)O)C(=O)N[C@H]1CSSC[C@@H](C(=O)N[C@H](C(=O)N[C@@H](Cc2ccccc2)C(=O)N[C@H](Cc2ccccn2)C(N)=O)[C@@H](C)O)NC(=O)[C@H](Cc2c[nH]c3ccccc23)NC(=O)[C@H](C(C)C)NC(=O)[C@H](CC(C)C)NC(=O)[C@H](CCC(=O)O)NC(=O)CNC(=O)[C@H](CC(C)C)NC(=O)[C@H](Cc2cnc[nH]2)NC(=O)[C@H](Cc2ccc(O)cc2)NC(=O)[C@H](C)NC1=O	1.32e+06	7.64	0.0304
CC(=O)N[C@@H](CC(=O)O)C(=O)N[C@H]1CSSC[C@@H](C(=O)N[C@H](C(=O)N[C@@H](Cc2ccccc2)C(=O)N[C@H](Cc2ccccn2)C(N)=O)[C@@H](C)O)NC(=O)[C@H](Cc2c[nH]c3ccccc23)NC(=O)[C@H](C(C)C)NC(=O)[C@H](CC(C)C)NC(=O)[C@H](CCC(=O)O)NC(=O)CNC(=O)[C@H](CCCCN)NC(=O)[C@H](Cc2cnc[nH]2)NC(=O)[C@H](Cc2ccc(O)cc2)NC(=O)[C@H](C)NC1=O	593000	6.24	0.344
CC(=O)N[C@@H](CC(=O)O)C(=O)N[C@H]1CSSC[C@@H](C(=O)N[C@H](C(=O)N[C@@H](Cc2ccccc2)C(=O)N[C@@H](C)C(N)=O)[C@@H](C)O)NC(=O)[C@H](Cc2c[nH]c3ccccc23)NC(=O)[C@H](C(C)C)NC(=O)[C@H](CC(C)C)NC(=O)[C@H](CCC(=O)O)NC(=O)CNC(=O)[C@H](CCCCN)NC(=O)[C@H](Cc2cnc[nH]2)NC(=O)[C@H](Cc2ccc(O)cc2)NC(=O)[C@H](C)NC1=O (Ac-DCAYHKGELVWCTFA-NH2; disulfide 2-12)	567000	6.08	0.477
CC(=O)N[C@@H](CC(=O)O)C(=O)N[C@H]1CSSC[C@@H](C(=O)N[C@H](C(=O)N[C@@H](Cc2ccccc2)C(=O)N[C@@H](Cc2ccccc2)C(N)=O)[C@@H](C)O)NC(=O)[C@H](Cc2c[nH]c3ccccc23)NC(=O)[C@H](C(C)C)NC(=O)[C@H](CC(C)C)NC(=O)[C@H](CCC(=O)O)NC(=O)CNC(=O)[C@H](CCCCN)NC(=O)[C@H](Cc2cnc[nH]2)NC(=O)[C@H](Cc2ccc(O)cc2)NC(=O)[C@H](C)NC1=O (Ac-DCAYHKGELVWCTFF-NH2; disulfide 2-12)	713000	6.30	0.361
CC(=O)N[C@@H](CC(=O)O)C(=O)N[C@H]1CSSC[C@@H](C(=O)N[C@H](C(=O)N[C@@H](Cc2ccccc2)C(=O)N[C@@H](Cc2cnc[nH]2)C(=O)NCc2ccc(O)cc2)[C@@H](C)O)NC(=O)[C@H](Cc2c[nH]c3ccccc23)NC(=O)[C@H](C(C)C)NC(=O)[C@H](CC(C)C)NC(=O)[C@H](CCC(=O)O)NC(=O)CNC(=O)[C@H](CCCCN)NC(=O)[C@H](Cc2cnc[nH]2)NC(=O)[C@H](Cc2ccc(O)cc2)NC(=O)[C@H](C)NC1=O (Ac-DCAYHKGELVWCTFH-{NH(4-OH-benzyl)}; disulfide 2-12)	603000	6.69	0.122
CC(=O)N[C@@H](CC(=O)O)C(=O)N[C@H]1CSSC[C@@H](C(=O)N[C@H](C(=O)N[C@@H](Cc2ccccc2)C(=O)N[C@@H](Cc2cnc[nH]2)C(=O)NCC(N)=O)[C@@H](C)O)NC(=O)[C@H](Cc2c[nH]c3ccccc23)NC(=O)[C@H](C(C)C)NC(=O)[C@H](CC(C)C)NC(=O)[C@H](CCC(=O)O)NC(=O)CNC(=O)[C@H](CCCCN)NC(=O)[C@H](Cc2cnc[nH]2)NC(=O)[C@H](Cc2ccc(O)cc2)NC(=O)[C@H](C)NC1=O (Ac-DCAYHKGELVWCTFHG-NH2; disulfide 2-12)	615000	6.47	0.208
CC(=O)N[C@@H](CC(=O)O)C(=O)N[C@H]1CSSC[C@@H](C(=O)N[C@H](C(=O)N[C@@H](Cc2ccccc2)C(=O)N[C@@H](Cc2c[nH]c3ccccc23)C(N)=O)[C@@H](C)O)NC(=O)[C@H](Cc2c[nH]c3ccccc23)NC(=O)[C@H](C(C)C)NC(=O)[C@H](CC(C)C)NC(=O)[C@H](CCC(=O)O)NC(=O)CNC(=O)[C@H](CCCCN)NC(=O)[C@H](Cc2cnc[nH]2)NC(=O)[C@H](Cc2ccc(O)cc2)NC(=O)[C@H](C)NC1=O (Ac-DCAYHKGELVWCTFW-NH2; disulfide 2-12)		5.91	
CC(=O)N[C@@H](CC(=O)O)C(=O)N[C@H]1CSSC[C@@H](C(=O)N[C@H](C(=O)N[C@@H](Cc2ccccc2)C(=O)NC(Cc2cccs2)C(N)=O)[C@@H](C)O)NC(=O)[C@H](Cc2c[nH]c3ccccc23)NC(=O)[C@H](C(C)C)NC(=O)[C@H](CC(C)C)NC(=O)[C@H](CCC(=O)O)NC(=O)CNC(=O)[C@H](CCCCN)NC(=O)[C@H](Cc2cnc[nH]2)NC(=O)[C@H](Cc2ccc(O)cc2)NC(=O)[C@H](C)NC1=O (some centres not stated) (Ac-DCAYHKGELVWCTF[ξ2Thi]-NH2; disulfide 2-12)	771000	6.66	0.169
CC(=O)N[C@@H](CC(=O)O)C(=O)N[C@H]1CSSC[C@@H](C(=O)N[C@H](C(=O)N[C@@H](Cc2ccccc2)C(=O)NC(Cc2cccnc2)C(N)=O)[C@@H](C)O)NC(=O)[C@H](Cc2c[nH]c3ccccc23)NC(=O)[C@H](C(C)C)NC(=O)[C@H](CC(C)C)NC(=O)[C@H](CCC(=O)O)NC(=O)CNC(=O)[C@H](CCCCN)NC(=O)[C@H](Cc2cnc[nH]2)NC(=O)[C@H](Cc2ccc(O)cc2)NC(=O)[C@H](C)NC1=O (some centres not stated) (Ac-DCAYHKGELVWCTF[ξ3Pal]-NH2; disulfide 2-12)	772000	6.26	0.425
CC(=O)N[C@@H](CC(=O)O)C(=O)N[C@H]1CSSC[C@@H](C(=O)N[C@H](C(=O)N[C@@H](Cc2ccccc2)C(=O)NC(Cc2ccncc2)C(N)=O)[C@@H](C)O)NC(=O)[C@H](Cc2c[nH]c3ccccc23)NC(=O)[C@H](C(C)C)NC(=O)[C@H](CC(C)C)NC(=O)[C@H](CCC(=O)O)NC(=O)CNC(=O)[C@H](CCCCN)NC(=O)[C@H](Cc2cnc[nH]2)NC(=O)[C@H](Cc2ccc(O)cc2)NC(=O)[C@H](C)NC1=O (some centres not stated) (Ac-DCAYHKGELVWCTF[ξ4Pal]-NH2; disulfide 2-12)	730000	6.27	0.389
CC(=O)N[C@@H](CC(=O)O)C(=O)N[C@H]1CSSC[C@@H](C(=O)N[C@H](C(=O)N[C@@H](Cc2ccccc2)C(=O)NC(CC2CCCCC2)C(N)=O)[C@@H](C)O)NC(=O)[C@H](Cc2c[nH]c3ccccc23)NC(=O)[C@H](C(C)C)NC(=O)[C@H](CC(C)C)NC(=O)[C@H](CCC(=O)O)NC(=O)CNC(=O)[C@H](CCCCN)NC(=O)[C@H](Cc2cnc[nH]2)NC(=O)[C@H](Cc2ccc(O)cc2)NC(=O)[C@H](C)NC1=O (some centres not stated) (Ac-DCAYHKGELVWCTF[ξCha]-NH2; disulfide 2-12)	776000	6.78	0.128
CC(=O)N[C@@H](CC(=O)O)C(=O)N[C@H]1CSSC[C@@H](C(=O)N[C@H](C(=O)N[C@@H](Cc2ccccc2)C(=O)NC(CCCN)C(N)=O)[C@@H](C)O)NC(=O)[C@H](Cc2c[nH]c3ccccc23)NC(=O)[C@H](C(C)C)NC(=O)[C@H](CC(C)C)NC(=O)[C@H](CCC(=O)O)NC(=O)CNC(=O)[C@H](CCCCN)NC(=O)[C@H](Cc2cnc[nH]2)NC(=O)[C@H](Cc2ccc(O)cc2)NC(=O)[C@H](C)NC1=O (some centres not stated) (Ac-DCAYHKGELVWCTF[ξOrn]-NH2; disulfide 2-12)		6.15	
